Assay results reported in paper PMC3914206.

Tests used:
Format in all cases: binding
Conditions in all cases: Compound Concentration 10 µM
[1] = target: T1, panel of 442 kinases (Homo sapiens, UniProt P00533, L858R/T790M)
T1 construct: purchased KINOMEscan
Source text: (§1) We assessed the selectivity of members of this scaffold using the KINOMEscan methodology across a near comprehensive panel of 442 kinases [[18,27]].

[2] = target: T2, panel of 442 kinases (Homo sapiens, UniProt Q9Y2H9)
T2 construct: purchased KINOMEscan
Source text: as §1

[3] = target: T3, panel of 442 kinases (Homo sapiens, UniProt O15111)
T3 construct: purchased KINOMEscan
T3 sequence (O15111 1-745): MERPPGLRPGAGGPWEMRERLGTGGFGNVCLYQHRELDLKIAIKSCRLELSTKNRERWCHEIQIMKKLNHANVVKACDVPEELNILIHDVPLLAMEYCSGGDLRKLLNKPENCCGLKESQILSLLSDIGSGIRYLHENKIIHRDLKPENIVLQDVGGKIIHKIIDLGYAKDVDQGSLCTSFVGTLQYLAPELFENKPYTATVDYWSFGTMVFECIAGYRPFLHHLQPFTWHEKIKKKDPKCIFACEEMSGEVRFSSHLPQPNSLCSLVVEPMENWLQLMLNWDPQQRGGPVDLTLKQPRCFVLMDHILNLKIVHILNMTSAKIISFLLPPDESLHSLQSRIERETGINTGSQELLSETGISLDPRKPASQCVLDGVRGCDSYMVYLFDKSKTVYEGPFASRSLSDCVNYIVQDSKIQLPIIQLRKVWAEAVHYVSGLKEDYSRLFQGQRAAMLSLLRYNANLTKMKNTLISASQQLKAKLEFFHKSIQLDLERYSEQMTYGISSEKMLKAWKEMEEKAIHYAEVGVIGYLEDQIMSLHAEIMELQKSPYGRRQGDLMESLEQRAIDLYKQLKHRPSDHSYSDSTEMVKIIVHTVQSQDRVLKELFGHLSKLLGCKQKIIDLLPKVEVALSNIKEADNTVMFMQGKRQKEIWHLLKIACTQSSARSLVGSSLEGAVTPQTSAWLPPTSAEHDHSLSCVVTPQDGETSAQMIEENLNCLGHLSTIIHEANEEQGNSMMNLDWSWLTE
Source text: as §1

T2 sequence (Q9Y2H9 whole entry): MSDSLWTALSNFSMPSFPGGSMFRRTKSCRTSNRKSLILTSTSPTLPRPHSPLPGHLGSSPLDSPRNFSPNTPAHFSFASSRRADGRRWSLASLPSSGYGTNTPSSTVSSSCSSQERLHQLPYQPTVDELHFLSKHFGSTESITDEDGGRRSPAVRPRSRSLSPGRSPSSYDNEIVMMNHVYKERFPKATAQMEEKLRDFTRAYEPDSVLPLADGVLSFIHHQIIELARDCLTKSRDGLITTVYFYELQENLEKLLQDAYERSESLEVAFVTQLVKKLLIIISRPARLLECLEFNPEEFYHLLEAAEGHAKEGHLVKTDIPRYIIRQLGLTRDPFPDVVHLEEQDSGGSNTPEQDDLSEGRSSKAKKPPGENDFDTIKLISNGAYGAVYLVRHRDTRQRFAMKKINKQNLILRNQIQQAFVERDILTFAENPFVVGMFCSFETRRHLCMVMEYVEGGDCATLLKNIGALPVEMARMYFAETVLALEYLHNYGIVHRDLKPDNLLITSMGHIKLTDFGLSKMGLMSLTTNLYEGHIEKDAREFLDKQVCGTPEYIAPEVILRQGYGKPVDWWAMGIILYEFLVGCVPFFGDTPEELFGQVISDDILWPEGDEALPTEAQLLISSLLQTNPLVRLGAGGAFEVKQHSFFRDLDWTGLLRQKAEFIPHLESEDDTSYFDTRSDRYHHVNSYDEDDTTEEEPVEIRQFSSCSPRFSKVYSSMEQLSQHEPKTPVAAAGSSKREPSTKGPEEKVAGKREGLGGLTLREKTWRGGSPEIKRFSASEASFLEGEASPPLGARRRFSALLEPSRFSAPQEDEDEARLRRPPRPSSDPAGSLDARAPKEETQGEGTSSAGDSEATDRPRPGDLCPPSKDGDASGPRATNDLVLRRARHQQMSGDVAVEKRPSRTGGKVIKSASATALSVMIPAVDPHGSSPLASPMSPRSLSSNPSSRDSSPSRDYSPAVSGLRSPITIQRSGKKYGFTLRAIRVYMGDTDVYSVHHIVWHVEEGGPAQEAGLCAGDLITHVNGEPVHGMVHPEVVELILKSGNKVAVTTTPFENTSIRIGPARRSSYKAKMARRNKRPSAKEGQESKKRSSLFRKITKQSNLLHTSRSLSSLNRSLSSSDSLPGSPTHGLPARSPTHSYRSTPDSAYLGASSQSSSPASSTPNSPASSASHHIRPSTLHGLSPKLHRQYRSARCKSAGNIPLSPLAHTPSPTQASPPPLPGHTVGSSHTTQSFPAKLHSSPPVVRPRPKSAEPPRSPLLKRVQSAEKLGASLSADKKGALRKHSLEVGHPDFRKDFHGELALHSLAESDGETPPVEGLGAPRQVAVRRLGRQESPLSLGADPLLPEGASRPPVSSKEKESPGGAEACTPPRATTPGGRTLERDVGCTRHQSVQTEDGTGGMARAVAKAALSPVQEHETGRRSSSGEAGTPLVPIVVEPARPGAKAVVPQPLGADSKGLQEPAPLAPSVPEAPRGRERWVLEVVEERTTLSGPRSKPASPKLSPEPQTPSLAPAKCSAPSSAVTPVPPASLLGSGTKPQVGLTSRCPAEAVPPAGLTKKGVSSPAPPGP
T1 sequence (P00533 25-1210 T790M/L858R): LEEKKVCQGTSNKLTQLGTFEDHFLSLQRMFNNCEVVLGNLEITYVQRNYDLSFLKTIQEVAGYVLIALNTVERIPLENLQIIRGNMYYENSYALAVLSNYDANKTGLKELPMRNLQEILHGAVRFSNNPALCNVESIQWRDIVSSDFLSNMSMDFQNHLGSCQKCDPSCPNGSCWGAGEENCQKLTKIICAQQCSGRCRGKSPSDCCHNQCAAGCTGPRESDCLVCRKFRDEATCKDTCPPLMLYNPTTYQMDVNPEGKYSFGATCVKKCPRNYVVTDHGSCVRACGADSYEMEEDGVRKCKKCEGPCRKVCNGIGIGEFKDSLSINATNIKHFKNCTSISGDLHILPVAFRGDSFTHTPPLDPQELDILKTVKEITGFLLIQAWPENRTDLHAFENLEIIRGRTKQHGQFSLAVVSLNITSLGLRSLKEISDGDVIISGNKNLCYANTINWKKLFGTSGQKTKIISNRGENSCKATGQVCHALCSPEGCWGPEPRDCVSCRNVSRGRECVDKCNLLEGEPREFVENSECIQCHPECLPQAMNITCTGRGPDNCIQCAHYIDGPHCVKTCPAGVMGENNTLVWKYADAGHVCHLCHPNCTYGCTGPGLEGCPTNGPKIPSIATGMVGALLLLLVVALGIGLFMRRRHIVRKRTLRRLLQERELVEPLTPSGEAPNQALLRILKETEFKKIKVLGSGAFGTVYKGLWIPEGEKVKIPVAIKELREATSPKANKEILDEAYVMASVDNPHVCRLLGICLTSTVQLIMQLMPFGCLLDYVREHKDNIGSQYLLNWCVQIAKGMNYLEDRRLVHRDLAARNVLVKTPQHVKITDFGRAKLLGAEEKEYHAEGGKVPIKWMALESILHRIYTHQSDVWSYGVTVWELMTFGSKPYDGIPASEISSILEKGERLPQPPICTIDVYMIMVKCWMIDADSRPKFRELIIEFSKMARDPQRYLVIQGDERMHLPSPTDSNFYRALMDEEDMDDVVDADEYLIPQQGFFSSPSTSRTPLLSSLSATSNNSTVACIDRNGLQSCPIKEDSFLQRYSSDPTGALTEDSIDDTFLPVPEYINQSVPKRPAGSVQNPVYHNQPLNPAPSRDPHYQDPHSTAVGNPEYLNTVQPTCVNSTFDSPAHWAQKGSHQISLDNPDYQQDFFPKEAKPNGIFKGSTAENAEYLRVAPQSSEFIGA

Row | SMILES | KINOMEscan: EGFR(L858R,T790M) [1] | KINOMEscan: MAST1 [2] | KINOMEscan: IKK-alpha [3]
1 | CCOc1cc(C(=O)N2CCC(N3CCN(C)CC3)CC2)ccc1Nc1ncc2c(n1)N(C1CCCC1)c1ccccc1C(=O)N2C [Compound 26] | 78 | 100 | 100
2 | COc1cc(C(=O)N2CCC(N3CCN(C)CC3)CC2)ccc1Nc1ncc2c(n1)N(C1CCCC1)c1ccccc1C(=O)N2C [Compound 25, 11-cyclopentyl-2-((2-methoxy-4-(4-(4-methylpiperazin-1-yl)piperidine-1-carbonyl)phenyl)amino)-5-methyl-5H-benzo[e]pyrimido[5,4-b][1,4]diazepin-6(11H)-one] | 100 | 78 | 100
3 | COc1cc(C(=O)N2CCC(N3CCN(C)CC3)CC2)ccc1Nc1ncc2c(n1)N1CCc3cccc(c31)C(=O)N2C [Compound 24] |  | 73 | 
4 | COc1cc(C(=O)N2CCC(N3CCN(C)CC3)CC2)ccc1Nc1ncc2c(n1)N(C)c1ccccc1C(=O)N2C [15 (LRRK2-IN-1)] | 84 | 100 | 100
